The numbers were not newly measured in patent publication US20210275546A1, “HIGH DRUG LOAD SOLID ORAL DOSAGE FORMS OF DEXAMETHASONE” (Jubilant Pharma Holdings Inc., priority 2020, published 2021), which cites them from elsewhere.

“Also recorded” adds a separate entry of the source.

As to `C[C@@H]1C[C@H]2[C@@H]3CCC4=CC(=O)C=C[C@]4(C)[C@@]3(F)[C@@H](O)C[C@]2(C)[C@@]1(O)C(=O)CO` [Dexamethasone, 9-fluoro-11β,17,21trihydroxy-16α-methylpregna-1,4-diene-3,20-dione], under “acetone”, the solubility in acetone result is “sparingly soluble”. Besides, the solubility in dichloromethane result (dichloromethane) is recorded as “slightly soluble”. Besides, the solubility in ethanol entry (ethanol) is listed as “sparingly soluble”. Moreover, the solubility in methanol result (methanol) is “sparingly soluble”. The solubility in water entry (water) is given as “practically insoluble; also recorded: poorly water-soluble”.
